For 100 compounds, cytotoxicity results are on record in ChEMBL document CHEMBL3507680, “University of Dundee, Gates Library screen for HepG2 cell viability”.

The data set can be described thus: Human HepG2 cell viability assay in 384 well format. It is filed as toxicity, cell-based. Details: dose 125 nL, time 70.5 hour; concentration not given beside the values. To be noted: HepG2 cells, read-out: Inhibition.

For the compound `CO[C@@]1(C)C[C@@H](O)C12CCN(C(=O)C1(c3ccccc3F)CC1)CC2`, the cytotoxicity at 70.5 h is 9.4%.

Regarding `CC(C)CNC(=O)CN(C)S(C)(=O)=O`, the cytotoxicity at 70.5 h was determined as 0.607%.

Turning to `Cc1cc(=O)[nH]c(SC(C)C(=O)N2CCCN(C3CCCC3)CC2)n1` (stereo not given), the cytotoxicity at 70.5 h turned out to be 6.46%.

Turning to `CC(=O)N[C@H]1CN(CC(=O)NCc2ccccc2C)C[C@@H]1C(C)C`, the cytotoxicity at 70.5 h is -4.45%.

Turning to `CCC(NC(=O)C1CCN(S(C)(=O)=O)CC1)c1ccc(OC)cc1` (stereo not given), the cytotoxicity at 70.5 h was -4.59%.

Consider `CN(Cc1ccoc1)C(=O)C1CC(=O)N(Cc2ccncc2)C1` (stereo not given), for which the cytotoxicity at 70.5 h was -8.62%.

Regarding `Cc1ccc(C(=O)NCCN2CCOCC2)cc1N(C)S(C)(=O)=O`, the cytotoxicity at 70.5 h is 1.25%.

In the case of `Cc1c(C(=O)N(C)C)cccc1N(C)S(C)(=O)=O`, the cytotoxicity at 70.5 h was determined as 0.872%.

On to `CC(C)CN1CCC(NCCNc2cccnc2)CC1`, for which the cytotoxicity at 70.5 h is -17.2%.

Turning to `C/C=C(\C)CN1C[C@H](c2cccc(OC)c2)[C@@H](N)C1`, the cytotoxicity at 70.5 h was -5.71%.

On to `CCN(CC)C(=O)[C@@H]1C[C@H](N)CN1C(=O)c1cc2c([nH]c1=O)CCC2`, for which the cytotoxicity at 70.5 h came to 14.4%.

Take `CN1CCN(C(=O)C2CN(Cc3cc4ccccc4o3)CCN2)CC1` (stereo not given): the cytotoxicity at 70.5 h was -3.72%.

In the case of `CC(=O)Nn1ccc2c(nnc3c(-c4ccccc4)cnn32)c1=O`, the cytotoxicity at 70.5 h is -28.5%.

Consider `C[C@@H]1CN(C(=O)CCCN2CCOCC2)CC[C@@]1(O)C1CCC1`, for which the cytotoxicity at 70.5 h was -3.73%.

In the case of `Cc1ccc2c(c1)OC(C)(C)CC2NC(=O)C1CCN(S(C)(=O)=O)CC1` (stereo not given), the cytotoxicity at 70.5 h was -5.08%.

`O=C(Nc1ccc2c(c1)OCO2)N1CCCC1c1ccco1` (stereo not given): the cytotoxicity at 70.5 h was -4.29%.

In the case of `Cc1cccc(C(C(=O)NCCCc2nnc3ccccn23)N(C)C)c1` (stereo not given), the cytotoxicity at 70.5 h was 20.2%.

With `COc1ccc(CNC(=O)CCN2CCOC(C(F)(F)F)C2)cc1` (stereo not given), the cytotoxicity at 70.5 h is -7.56%.

As to `Cc1nc(O)cc(CNC(=O)CC[C@@H]2CCCN3CCCC[C@H]23)n1`, the cytotoxicity at 70.5 h is -9.94%.

Consider `NCCO[C@H]1C[C@@H](O)C12CCN(C(=O)CCOc1ccccc1)CC2`, for which the cytotoxicity at 70.5 h was -0.434%.

As for `COc1cccc2c1OCC(CNC(=O)CSc1ccccn1)C2` (stereo not given), the cytotoxicity at 70.5 h is -6.38%.

On to `COc1ccc(CN(C)c2nccc(-c3cn(C)nc3C)n2)cc1`, for which the cytotoxicity at 70.5 h was 13.2%.

In the case of `CCN(Cc1noc(CC(C)C)n1)Cc1ccccc1OCC(=O)O`, the cytotoxicity at 70.5 h is -2.84%.

As for `CCc1ccc(NC(=O)C2CCN(C(=O)COC)CC2)cc1`, the cytotoxicity at 70.5 h is -9.16%.

On to `CC1(C)CN(C(=O)CC2CCC2)C[C@]1(C)O`, for which the cytotoxicity at 70.5 h was -2.02%.

On to `COc1ccc(NC(=O)Cn2nc(C)c(C)cc2=O)cc1Cl`, for which the cytotoxicity at 70.5 h is 0.971%.

Regarding `COCCOC1CCN(C(C(=O)O)c2ccc(F)c(Cl)c2)CC1` (stereo not given), the cytotoxicity at 70.5 h was -9.08%.

For the compound `Cc1nnsc1C(=O)N1C[C@H]2CC[C@@H]1CN(c1cnccn1)C2`, the cytotoxicity at 70.5 h is -5.21%.

Consider `OCC1(Cc2ccc(F)cc2F)CCCN(Cc2ccncc2)C1` (stereo not given), for which the cytotoxicity at 70.5 h is -5.76%.

For `COc1cccc2c1OCC(CNC(=O)Cc1c(C)nc(N)nc1C)C2` (stereo not given), the cytotoxicity at 70.5 h was -7.12%.

Regarding `CC(C)(C)C(=O)NCCNc1cc(N2CCCC2)ncn1`, the cytotoxicity at 70.5 h was -8.01%.

In the case of `COc1cccc(NC(=O)c2cc3c([nH]c2=O)CCCC3=O)c1`, the cytotoxicity at 70.5 h was -8.19%.

On to `Cc1ccc(OCC(C)NS(C)(=O)=O)cc1C` (stereo not given), for which the cytotoxicity at 70.5 h was -3.53%.

As for `Cc1cc(CN2CCc3nc(C)n(C)c(=O)c3CC2)[nH]n1`, the cytotoxicity at 70.5 h is -5.95%.

Turning to `COCCn1cnnc1CCNc1cc(C)nc2ccnn12`, the cytotoxicity at 70.5 h is -2.09%.

For `CC(C)(C)n1ncc2c1NC(=O)CC2c1cccc(F)c1` (stereo not given), the cytotoxicity at 70.5 h amounted to 3.13%.

Regarding `COc1ccc(-c2n[nH]cc2CN(C)CCc2scnc2C)c(F)c1`, the cytotoxicity at 70.5 h is 1.84%.

As to `Cc1nn(C)c2nc(N3CCC(C(O)Cc4ccccc4)CC3)sc12` (stereo not given), the cytotoxicity at 70.5 h was -2.11%.

With `CCC(CO)N(CC=C(C)C)Cc1ccsc1` (stereo not given), the cytotoxicity at 70.5 h was -2.49%.

With `COc1ccc(C(C)NC(=O)C2CCN(S(C)(=O)=O)CC2)cc1C` (stereo not given), the cytotoxicity at 70.5 h is -4.77%.

As to `CCCn1ncc(C(=O)N2CCCC(OCc3ccccn3)C2)c1C` (stereo not given), the cytotoxicity at 70.5 h is -4.73%.

As to `CCc1cc(NCCCC2CCOC2)n2nccc2n1` (stereo not given), the cytotoxicity at 70.5 h is -1.93%.

For `Fc1ccc(NC2CCCN(Cc3ccncc3)C2)cc1` (stereo not given), the cytotoxicity at 70.5 h came out at 26.1%.

For `Cc1nc2c(cc1C(=O)Nc1ccccc1Cl)c(=O)n(C)c(=O)n2C`, the cytotoxicity at 70.5 h was -9.88%.

As to `CCS(=O)(=O)N1CCN(c2cc(-n3cnc(C)c3C)nc(C)n2)CC1`, the cytotoxicity at 70.5 h is -2.19%.

In the case of `CCCNC(=O)C(C)Oc1ccc(F)cc1` (stereo not given), the cytotoxicity at 70.5 h was -12.9%.

Consider `COc1ccc(OC)c(NC(=O)c2cc3c([nH]c2=O)CCCC3=O)c1`, for which the cytotoxicity at 70.5 h is -4.78%.

As to `CC(C)COc1ccccc1CN(C)C(=O)c1cc(=O)[nH]c(=O)[nH]1`, the cytotoxicity at 70.5 h is -8.79%.

As for `CC(C1CCN(Cc2cnn(C)c2C2CC2)CC1)N(C)C` (stereo not given), the cytotoxicity at 70.5 h was -7.09%.

In the case of `Cc1nc(CCN(C)C(=O)CN2CCCCCC2)no1`, the cytotoxicity at 70.5 h was -9.68%.

Take `CCN(Cc1ccc(S(C)(=O)=O)cc1)Cc1nc(COC)no1`: the cytotoxicity at 70.5 h is -11.1%.

As to `c1cnn(CC2CN(Cc3csc(C4CCCCC4)n3)CCO2)c1` (stereo not given), the cytotoxicity at 70.5 h is -0.469%.

With `CCNc1cc2c(nn1)CCN(C(=O)c1c(C)noc1C)C2`, the cytotoxicity at 70.5 h was -2.94%.

Consider `c1ccc(-c2nc(CN3CCOC(Cn4cncn4)C3)cs2)cc1` (stereo not given), for which the cytotoxicity at 70.5 h was -3.05%.

For `CCNc1cc2c(nn1)CCN(C(=O)Cc1ccc(C)s1)C2`, the cytotoxicity at 70.5 h came out at 0.997%.

With `Cc1cnn(CCC(=O)NC2CCc3nc(C)cn3C2)c1` (stereo not given), the cytotoxicity at 70.5 h was -3.94%.

For the compound `O=C(CCCn1cncn1)NC1CCc2nccn2C1` (stereo not given), the cytotoxicity at 70.5 h was -0.0953%.

On to `CCc1cnc(CN(C(C)=O)C2CCN(CC(=O)N3CCCC3)C2)o1` (stereo not given), for which the cytotoxicity at 70.5 h is -4.28%.

Turning to `Cc1cccc(OCCNC(=O)CN2CCN(C)CC2C)c1` (stereo not given), the cytotoxicity at 70.5 h came to 25.2%.

On to `CSC(C)C(=O)N(C)CCCc1cc(-c2ccccc2)no1` (stereo not given), for which the cytotoxicity at 70.5 h was determined as 27.1%.

As for `CCc1noc(C(C)N2CCN(CCOCC(F)(F)F)CC2)n1` (stereo not given), the cytotoxicity at 70.5 h was -2.37%.

As to `Cc1ccc(CC(=O)N2CCCC(c3ccn[nH]3)C2)cn1` (stereo not given), the cytotoxicity at 70.5 h was determined as 0.114%.

As for `O=C(Nc1cccc(CNCc2cccnc2)c1)C1CCCC1`, the cytotoxicity at 70.5 h is -4.79%.

Regarding `CC(c1cccc(Cl)c1)N(C)Cc1nc2c(cnn2C)c(=O)[nH]1` (stereo not given), the cytotoxicity at 70.5 h is -1.63%.

On to `COc1ccc(C(C)N(C)Cc2nc3c(cnn3C)c(=O)[nH]2)cc1` (stereo not given), for which the cytotoxicity at 70.5 h is -8.42%.

Turning to `CNC(=O)NC(=O)C(C)N(C)CCCc1cc(-c2ccccc2)no1` (stereo not given), the cytotoxicity at 70.5 h was -1.15%.

For `COc1cccc(N2CCN(C(=O)CN(C)c3cnccn3)CC2)c1`, the cytotoxicity at 70.5 h is -1.38%.

Regarding `O=C(O)c1cc(NS(=O)(=O)c2ccc(Br)s2)c(F)cc1F`, the cytotoxicity at 70.5 h amounted to 1.5%.

Take `O=C1NCCN1C1CCN(CCOc2ccccc2F)CC1`: the cytotoxicity at 70.5 h was -5.97%.

As to `CCn1ccnc1CN1CCN(Cc2cc(C#N)ccc2F)CC1`, the cytotoxicity at 70.5 h was -3.57%.

As for `Clc1ccc(CN2CCCC2Cn2cncn2)c2ncccc12` (stereo not given), the cytotoxicity at 70.5 h was -2.37%.

As to `CCOC1CCN(C(=O)CN(C)c2cnccn2)CC1`, the cytotoxicity at 70.5 h is -4.29%.

Consider `Cc1ccc(CC(=O)N2CCCC(c3nccs3)C2)cn1` (stereo not given), for which the cytotoxicity at 70.5 h was -4.34%.

Turning to `CC(C)Oc1ccc(CNC(=O)NCC(C)(C)C(N)=O)cc1F`, the cytotoxicity at 70.5 h was -5.2%.

In the case of `CNc1nc(CNC(=O)Nc2ccc([S+](C)[O-])c(F)c2)cs1` (stereo not given), the cytotoxicity at 70.5 h was -2.75%.

On to `CC(c1cc(F)ccc1F)N(C)Cc1nc2c(cnn2C)c(=O)[nH]1` (stereo not given), for which the cytotoxicity at 70.5 h was found to be 10.4%.

On to `Clc1ccc2cccnc2c1CN1CCCCC1Cn1cncn1` (stereo not given), for which the cytotoxicity at 70.5 h was -4.31%.

Consider `CC(=O)N1CCCN(C(=O)NCCNc2ccccn2)CC1`, for which the cytotoxicity at 70.5 h came out at 2.71%.

With `CN(Cc1ccc(N(C)C)cc1)C(=O)c1cc2c([nH]c1=O)CCCC2=O`, the cytotoxicity at 70.5 h is -4.35%.

As for `Cc1nc(CNC(=O)N(C)Cc2cnn(C)c2)cs1`, the cytotoxicity at 70.5 h came out at 9.64%.

With `CC(NC(=O)NCCCn1cncn1)c1ccc2c(c1)CC(=O)N2` (stereo not given), the cytotoxicity at 70.5 h was -1.37%.

As for `COCCCNC(=O)CN(C)C(=O)c1ccccc1O`, the cytotoxicity at 70.5 h was -3.02%.

On to `CC(NC(=O)NCCCn1cncn1)c1ccncc1` (stereo not given), for which the cytotoxicity at 70.5 h turned out to be 2.26%.

As to `CN(Cc1ccsc1)C(=O)c1cc2c([nH]c1=O)CCC2`, the cytotoxicity at 70.5 h is -4.53%.

Consider `COCCCNC(=O)CN(C)C(=O)c1cc(Cl)ccc1O`, for which the cytotoxicity at 70.5 h worked out at 0.174%.

Turning to `Cn1cc(C2CCCN2C(=O)c2ccc(NC3CC3)nc2)cn1` (stereo not given), the cytotoxicity at 70.5 h is 0.0682%.

For the compound `CCc1nc(CN2CCCN(C(=O)c3cnc(C)cn3)CC2)cs1`, the cytotoxicity at 70.5 h is 1.16%.

For the compound `CCc1nc(CN2CCCN(C(=O)c3ccnc(C)n3)CC2)cs1`, the cytotoxicity at 70.5 h came out at 3.9%.

Consider `CNC(=O)c1ccc(C(=O)N2CCCC2c2c(C)nn(C)c2C)cn1` (stereo not given), for which the cytotoxicity at 70.5 h is -4.27%.

For the compound `O=C(c1cnccn1)N1CCN(Cc2cscn2)CC1`, the cytotoxicity at 70.5 h turned out to be 31.3%.

`Cc1nn(C)c(C)c1C1CCCN1C(=O)c1ccc(C(N)=O)cn1` (stereo not given): the cytotoxicity at 70.5 h stood at 4.05%.

Regarding `Cc1ncsc1C(=O)NCCNC(=O)c1cccs1`, the cytotoxicity at 70.5 h is -3.7%.

For the compound `CC(NC(=O)NCCCn1cccn1)c1ccc2c(c1)OCCCO2` (stereo not given), the cytotoxicity at 70.5 h came to 13.2%.

With `Cc1cccc(OCCN2CCN(Cc3cnn(CCO)c3)CC2)c1`, the cytotoxicity at 70.5 h was -1.35%.

Take `Cc1ccc(CNC(=O)CN2CCOC(Cn3cccn3)C2)s1` (stereo not given): the cytotoxicity at 70.5 h is -4.52%.

`Cc1ccccc1OCCN1CCN(Cc2cnn(CCO)c2)CC1`: the cytotoxicity at 70.5 h was determined as 4.76%.

For `Cc1csc(N2CCN(CC(=O)N3CCCC3)CC2C)n1` (stereo not given), the cytotoxicity at 70.5 h is 1.56%.

Consider `Cc1ccc(N(CCC#N)C(=O)CN2CCCC2c2ccsc2)cc1` (stereo not given), for which the cytotoxicity at 70.5 h was 0.989%.

Regarding `CN(C)c1ccc(C(=O)N2CCCC2c2noc(C3CC3)n2)nn1` (stereo not given), the cytotoxicity at 70.5 h was found to be 13.8%.

On to `O=C(Nc1cccc(CNCc2cccs2)c1)C1CC1`, for which the cytotoxicity at 70.5 h was -8.51%.
